Laboratory results: patent US12644099B2, “Methods for making T cell compositions” (2seventy bio, Inc., priority 2014, dated 2026)
Entries after “also recorded” stand apart in the source; their conditions may differ.

Legend:
[1] = tested on: anti-BCMA CAR T cells; assay: CD62L expression on anti-BCMA CAR T cells by flow cytometry at the end of culture with inhibitor; format: cell-based; conditions: ten days of culture with IL-2 and optimized dose of inhibitor; three normal donors
Protocol: CAR T cells were cultured with either MK-2206 or triciribine phosphate—TCN (AKT inhibitors) or ZSTK474 (PI3K inhibitor). CAR T cells specific for B cell maturation antigen (BCMA) were used in these set of experiments. CAR T cell cultures were performed using a system directly scalable to large clinical manufacturing processes. […] 2×10^8 transducing units of lentivirus encoding anti-BCMA CARs were added one day after culture initiation. […] At the end of culture, the anti-BCMA CAR T cells were interrogated for phenotype. Expression of CD62L on anti-BCMA CAR T cells was assessed by flow cytometry at the end of culture. Anti-BCMA CAR T cells were specifically identified using recombinant human BCMA-IgG Fc conjugated to PE. CD62L expression was determined with a co-stain using an antibody specific to CD62L. […] (FIG. 3).

[2] = tested on: Daudi tumor; assay: Anti-tumor activity of cultured anti-BCMA CAR T cells in aggressive Daudi tumor model; format: in vivo
From the text: Daudi tumor cells express a low level of BCMA protein and can be effectively treated using anti-BCMA CAR T cells.

[3] = tested on: RPMI-8226; assay: Persistence of anti-BCMA CAR T cells: RPMI-8226 tumor rechallenge; format: in vivo, mice; conditions: rechallenged 13 days later with RPMI-8226 on the opposite flank after complete regression
Protocol: Persistence of anti-BCMA CAR T cells was evaluated by re-challenging tumors in mice that had complete regression.

[4] = tested on: T cells; assay: CD62L expression on T cells treated with MK-2206; format: cell-based
Protocol: The purpose of this experiment was to determine the effect of Akt inhibitors on T cell markers for T cell potency. The impact of MK-2206 (Selleckchem) on T cell potency was assessed by measuring CD62L expression in the T cell cultures manufactured in Example 1. Mouse models have shown that CD62L expression identifies potent T cells; T cells with greater anti-tumor efficacy after adoptive transfer. […] FIG. 2. A pairwise T test was performed on all day seven cultures (each concentration of MK-2206 was compared to 0 μM MK-2206: *p<0.05, **p<0.01).

[5] = tested on: T cells; assay: T cell proliferation (CellTrace Violet dilution, flow cytometry) of PBMC-derived T cells cultured with AKT inhibitor; format: cell-based
Protocol: The purpose of this experiment was to determine the effect of Akt inhibitors on T cell proliferation. The impact of MK-2206 (Selleckchem) on T cell proliferation was assessed by measuring T cell division. Peripheral blood mononuclear cells (PBMC) are a heterogeneous cellular population containing T cells. PBMC were harvested from normal donors and labeled with a fluorescent dye (CellTrace® Violet, Molecular Probes), whose intensity is progressively diluted by a factor of two with each cell division. The labeled PBMCs were used as a source of cells for T cell expansion. […] The impact of MK-2206 on cell division was assayed by evaluating CellTrace Violet dilution with flow cytometry after the addition of 0.025 μM, 0.074 μM, 0.222 μM, 0.67 μM, or 2.0 μM, MK-2206 to the T cultures at day 0. […] A pairwise t test was performed on all day seven cultures; (each concentration of MK-2206 was compared to 0 μM MK-2206: the cultures were not statistically different at the p≤0.05 level).

[6] = tested on: multiple myeloma tumors (RPMI-8226); assay: Anti-tumor activity of cultured anti-BCMA CAR T cells in sub cutaneous multiple myeloma tumor model; format: in vivo, mice; conditions: 100 mm^3 sub cutaneous RPMI-8226 tumors; 1×10^6 CAR-positive cells infused
Protocol: Anti-BCMA CAR T cells treated with MK-2206, TCN, or ZSTK474 as described in Example 3 were tested to evaluate whether increased CD62L expression was associated with increased anti-tumor activity. […] Animals with 100 mm^3 sub cutaneous multiple myeloma tumors (RPMI-8226) were infused with equivalent CAR T cell doses (1×10^6 CAR-positive cells).

Structure (SMILES) | CD62L expression on anti-BCMA CAR T cells compared to cultures with IL-2 alone [1] | anti-tumor activity (Daudi tumor progression) of anti-BCMA CAR T cells cultured with the agent [2] | tumor outgrowth / engraftment after rechallenge in animals treated with anti-BCMA CAR T cells cultured with the agent [3] | CD62L expression on T cells compared to no treatment control ([4]; seven days of culture in the presence of IL-2, all concentrations tested) | CD62L expression on T cells compared to no treatment control ([4]; three days of culture with MK-2206) | T cell division / proliferation compared to vehicle or non-treated controls ([5]; seven days of culture, 0.025-2.0 μM MK-2206 with IL-2, pairwise t test p≤0.05) | T cell division / proliferation compared to no treatment control ([5]; three days of culture, 0.025-2.0 μM MK-2206 with IL-2, CD3 and CD28 antibodies) | anti-tumor activity of anti-BCMA CAR T cells cultured with the agent [6]
FC(F)c1nc2ccccc2n1-c1nc(N2CCOCC2)nc(N2CCOCC2)n1 [ZSTK474] | significantly higher CD62L expression | complete tumor regression | none of the animals treated with ZSTK474-cultured anti-BCMA CAR T cells had any evidence of tumor engraftment |  |  |  |  | 
NC1(c2ccc(-c3nc4ccn5c(=O)[nH]nc5c4cc3-c3ccccc3)cc2)CCC1 [MK-2206] | significantly higher CD62L expression | complete tumor regression |  | significantly increases CD62L expression at all concentrations; also recorded: significant higher levels of CD62L expression | not substantially different | no statistically significant differences in T cell division; also recorded: not substantially different | did not substantially decrease T cell division; also recorded: only slightly decreased | 
CN1N=C(N)c2cn([C@@H]3O[C@H](COP(=O)(O)O)[C@@H](O)[C@H]3O)c3ncnc1c23 [TCN, triciribine phosphate] | not |  |  |  |  |  |  | did not show an anti-tumor response; also recorded: completely abolished any anti-tumor responses
